Results as given in publication PMC10576086, “Characterization of the horse chestnut genome reveals the evolution of aescin and aesculin biosynthesis” (Nature Communications, 2023).

Legend:
AcUGT92G7 = tested on: T1, AcUGT92G7; experiment: HPLC glucosyltransferase kinetics; assay type: biochemical, Aesculus chinensis; conditions: 1 mM UDP-glucose, Tris-HCl pH 7.0, 37 °C, 0-400 μM acceptor
T1 construct: gene UGT92G7; full-length, MBP or His fusion (pMAL-c2x or pET28a), E. coli, purified

AcUGT84A56 = tested on: T2, AcUGT84A56; experiment: HPLC glucosyltransferase kinetics; assay type: biochemical, Aesculus chinensis; conditions: 1 mM UDP-glucose, Tris-HCl pH 7.0, 37 °C, 0-400 μM acceptor
T2 construct: gene UGT84A56; full-length, MBP or His fusion (pMAL-c2x or pET28a), E. coli, purified

Km (AcUGT92G7): 49 µM | Km (AcUGT84A56): 177 µM
SMILES: O=c1ccc2cc(O)c(O)cc2o1 [compound 4, esculetin]
